Laboratory results taken from patent US12427134B2, “Methods of reducing the risk of cardiovascular events in a subject with atrial fibrillation and/or atrial flutter” (priority 2019, dated 2025).

System: hypertriglyceridemic patients with cardiovascular disease or at high risk for cardiovascular disease
Test: REDUCE-IT: electrocardiograms, vital signs (blood pressure, pulse), weight and waist circumference
Assay type: in vivo, human
Procedure: Blood pressure was measured using a standardized process: • Patient sat for ≥5 minutes with feet flat on the floor and measurement arm supported so that the midpoint of the manometer cuff was at heart level; and • Used a mercury sphygmomanometer or automatic blood pressure device with an appropriately sized cuff with the bladder centered over the brachial artery.
Blood pressure was recorded to the nearest 2 mmHg mark on the manometer or to the nearest whole number on an automatic device. A blood pressure reading was repeated 1 to 2 minutes later, and the second reading recorded to the nearest 2 mmHg mark.
Height, Weight and Body Mass Index: Height and weight were measured. Measurement of weight was performed with the patient dressed in indoor clothing, with shoes removed, and bladder empty.
Waist Circumference: Waist circumference was measured with a tape measure, as follows: Start at the top of the hip bone then bring the tape measure all the way around—level with the navel. Make sure the tape measure is snug, but without compressing the skin, and that it is parallel with the floor. Patients should not have held their breath while measuring waist circumference.
12-Lead Electrocardiogram (ECG): ECGs (standard 12-lead) were obtained annually. Site personnel made every attempt to perform a patient's ECG using the same equipment at each visit. ECGs were reviewed by the site for the detection of silent MI. Silent MIs were sent for event adjudication. All post-randomization ECGs (protocol-specified and other) were sent to the CEC for evaluation of silent MI. The 12-lead ECG parameters included Heart Rate (bpm), PR Interval (msec), QRS Interval (msec), QT Interval (msec), and QTc Interval (msec) were measured, and Overall Interpretation and Silent MI (Yes/No) were summarized for all patients at Screening (Visit 1), Randomization visit (Visit 2; Day 0) and all other follow-up visits including the last visit of the study.
A treatment-emergent PCS high value at any time was defined as a change from a value less than or equal to the defined PCS value at baseline to a PCS high value at any post-baseline measurement. A treatment-emergent PCS low value at any time was defined as a change from a value greater than or equal to the lower PCS value at baseline to a PCS low value at any post-baseline measurement.
As an additional exploratory analysis, the relationship between post-baseline biomarker values and treatment effects with the primary and key secondary endpoints were assessed by adding biomarker values (for example, at 4 months, or at 1 year, etc.) as time-dependent covariates in the Cox proportional hazards model. Diagnostic plots for the proportional hazard's assumption was evaluated. Weight was measured at the screening visit and at all follow-up visits, including the last visit of the study. Waist circumference was measured at the randomization visit (Visit 2; Day 0), Visit 5 (Day 720) and the last visit of the study. Descriptive statistics were presented by visit and treatment group for baseline, post-treatment change from baseline, and the percent change from baseline. Analysis methods for repeated measurements were used to compare percent change from baseline between treatments.

[1] = Baseline (Visit 2), Safety population
[2] = Visit 9 (n = 8), Safety population
[3] = any post-baseline visit, 3683 patients with data
[4] = any post-baseline visit, 3823 patients with data
[5] = any post-baseline visit, 3834 patients with data
[6] = any post-baseline visit, 3983 patients with data

CC/C=C\C/C=C\C/C=C\C/C=C\C/C=C\CCCC(=O)OCC [AMR101, eicosapentaenoic acid ethyl ester]
Diastolic Blood Pressure, mean baseline value [1]: 78.1 mmHg
ECG Heart Rate, mean baseline value [1]: 66.6 beats/minute
Heart Rate (vital sign), mean baseline value [1]: 68.1 beats/minute
PR Interval, mean baseline value [1]: 172.2 ms
QTc Interval, mean baseline value [1]: 422.4 ms
Systolic Blood Pressure, mean baseline value [1]: 132.6 mmHg
Diastolic Blood Pressure, mean change from baseline (Last Visit, Safety population): −0.7 mmHg
ECG Heart Rate, mean change from baseline (Last Visit, Safety population): 2.1 beats/minute
Heart Rate (vital sign), mean change from baseline (Last Visit, Safety population): 1.7 beats/minute
PR Interval, mean change from baseline (Last Visit, Safety population): 1.7 ms
QTc Interval, mean change from baseline (Last Visit, Safety population): 5.0 ms
Systolic Blood Pressure, mean change from baseline (Last Visit, Safety population): 0.9 mmHg
ECG TEAE - ECG signs of myocardial ischemia, % patients (Safety population, N = 4089): (0.0) %
ECG TEAE - ECG signs of myocardial ischemia, n patients (Safety population, N = 4089): 2
ECG TEAE - Electrocardiogram PR prolongation, % patients (Safety population, N = 4089): (0.0) %
ECG TEAE - Electrocardiogram PR prolongation, n patients (Safety population, N = 4089): 0
ECG TEAE - Electrocardiogram Q wave abnormal, % patients (Safety population, N = 4089): (0.0) %
ECG TEAE - Electrocardiogram Q wave abnormal, n patients (Safety population, N = 4089): 1
ECG TEAE - Electrocardiogram QRS complex abnormal, % patients (Safety population, N = 4089): (0.0) %
ECG TEAE - Electrocardiogram QRS complex abnormal, n patients (Safety population, N = 4089): 2
ECG TEAE - Electrocardiogram QT prolonged, % patients (Safety population, N = 4089): (0.2) %
ECG TEAE - Electrocardiogram QT prolonged, n patients (Safety population, N = 4089): 10
ECG TEAE - Electrocardiogram ST segment abnormal, % patients (Safety population, N = 4089): (0.1) %
ECG TEAE - Electrocardiogram ST segment abnormal, n patients (Safety population, N = 4089): 6
ECG TEAE - Electrocardiogram ST segment depression, % patients (Safety population, N = 4089): (0.1) %
ECG TEAE - Electrocardiogram ST segment depression, n patients (Safety population, N = 4089): 4
ECG TEAE - Electrocardiogram ST-T change, % patients (Safety population, N = 4089): (0.0) %
ECG TEAE - Electrocardiogram ST-T change, n patients (Safety population, N = 4089): 1
ECG TEAE - Electrocardiogram ST-T segment abnormal, % patients (Safety population, N = 4089): (0.0) %
ECG TEAE - Electrocardiogram ST-T segment abnormal, n patients (Safety population, N = 4089): 2
ECG TEAE - Electrocardiogram T wave abnormal, % patients (Safety population, N = 4089): (0.1) %
ECG TEAE - Electrocardiogram T wave abnormal, n patients (Safety population, N = 4089): 6
ECG TEAE - Electrocardiogram T wave amplitude decreased, % patients (Safety population, N = 4089): (0.0) %
ECG TEAE - Electrocardiogram T wave amplitude decreased, n patients (Safety population, N = 4089): 0
ECG TEAE - Electrocardiogram T wave inversion, % patients (Safety population, N = 4089): (0.2) %
ECG TEAE - Electrocardiogram T wave inversion, n patients (Safety population, N = 4089): 7
ECG TEAE - Electrocardiogram T wave normal, % patients (Safety population, N = 4089): (0.0) %
ECG TEAE - Electrocardiogram T wave normal, n patients (Safety population, N = 4089): 0
ECG TEAE - Electrocardiogram abnormal, % patients (Safety population, N = 4089): (0.2) %
ECG TEAE - Electrocardiogram abnormal, n patients (Safety population, N = 4089): 10
ECG TEAE - Electrocardiogram change, % patients (Safety population, N = 4089): (0.1) %
ECG TEAE - Electrocardiogram change, n patients (Safety population, N = 4089): 3
ECG TEAE - Exercise electrocardiogram abnormal, % patients (Safety population, N = 4089): (0.0) %
ECG TEAE - Exercise electrocardiogram abnormal, n patients (Safety population, N = 4089): 1
Diastolic Blood Pressure, mean change from baseline (Visit 3, Safety population): 0.1 mmHg
Heart Rate (vital sign), mean change from baseline (Visit 3, Safety population): 1.2 beats/minute
Systolic Blood Pressure, mean change from baseline (Visit 3, Safety population): −0.5 mmHg
Diastolic Blood Pressure, mean change from baseline (Visit 4, Safety population): −0.1 mmHg
ECG Heart Rate, mean change from baseline (Visit 4, Safety population): 1.2 beats/minute
Heart Rate (vital sign), mean change from baseline (Visit 4, Safety population): 0.9 beats/minute
PR Interval, mean change from baseline (Visit 4, Safety population): -0.3 ms
QTc Interval, mean change from baseline (Visit 4, Safety population): 1.8 ms
Systolic Blood Pressure, mean change from baseline (Visit 4, Safety population): −0.2 mmHg
Diastolic Blood Pressure, mean change from baseline (Visit 5, Safety population): −0.1 mmHg
ECG Heart Rate, mean change from baseline (Visit 5, Safety population): 1.7 beats/minute
Heart Rate (vital sign), mean change from baseline (Visit 5, Safety population): 1.3 beats/minute
PR Interval, mean change from baseline (Visit 5, Safety population): 0.4 ms
QTc Interval, mean change from baseline (Visit 5, Safety population): 2.8 ms
Systolic Blood Pressure, mean change from baseline (Visit 5, Safety population): 0.5 mmHg
Diastolic Blood Pressure, mean change from baseline (Visit 6, Safety population): −0.4 mmHg
ECG Heart Rate, mean change from baseline (Visit 6, Safety population): 1.6 beats/minute
Heart Rate (vital sign), mean change from baseline (Visit 6, Safety population): 1.4 beats/minute
PR Interval, mean change from baseline (Visit 6, Safety population): 0.8 ms
QTc Interval, mean change from baseline (Visit 6, Safety population): 3.7 ms
Systolic Blood Pressure, mean change from baseline (Visit 6, Safety population): 0.9 mmHg
Diastolic Blood Pressure, mean change from baseline (Visit 7, Safety population): −0.5 mmHg
ECG Heart Rate, mean change from baseline (Visit 7, Safety population): 1.8 beats/minute
Heart Rate (vital sign), mean change from baseline (Visit 7, Safety population): 1.5 beats/minute
PR Interval, mean change from baseline (Visit 7, Safety population): 1.4 ms
QTc Interval, mean change from baseline (Visit 7, Safety population): 5.0 ms
Systolic Blood Pressure, mean change from baseline (Visit 7, Safety population): 0.8 mmHg
Diastolic Blood Pressure, mean change from baseline (Visit 8, Safety population): −1.0 mmHg
ECG Heart Rate, mean change from baseline (Visit 8, Safety population): 1.4 beats/minute
Heart Rate (vital sign), mean change from baseline (Visit 8, Safety population): 0.9 beats/minute
PR Interval, mean change from baseline (Visit 8, Safety population): 2.2 ms
QTc Interval, mean change from baseline (Visit 8, Safety population): 6.6 ms
Systolic Blood Pressure, mean change from baseline (Visit 8, Safety population): 0.4 mmHg
PR Interval, mean change from baseline (Visit 9 (n = 5), Safety population): -21.2 ms
ECG Heart Rate, mean change from baseline (Visit 9 (n = 7), Safety population): 7.6 beats/minute
Diastolic Blood Pressure, mean change from baseline [2]: −2.7 mmHg
Heart Rate (vital sign), mean change from baseline [2]: 2.8 beats/minute
Systolic Blood Pressure, mean change from baseline [2]: −5.4 mmHg
PCS ECG finding: PR Interval <120 msec, % patients [3]: (7.1) %
PCS ECG finding: PR Interval <120 msec, n patients [3]: 261
PCS ECG finding: PR Interval >120 msec and increase >20 msec from baseline, % patients [3]: (24.8) %
PCS ECG finding: PR Interval >120 msec and increase >20 msec from baseline, n patients [3]: 913
PCS ECG finding: QTc Interval >500 msec, % patients [4]: (5.4) %
PCS ECG finding: QTc Interval >500 msec, n patients [4]: 208
PCS ECG finding: QRS Interval >110 msec, % patients [5]: (29.3) %
PCS ECG finding: QRS Interval >110 msec, n patients [5]: 1124
Diastolic Blood Pressure Decrease of ≥10 mmHg, % patients [6]: (39.4) %
Diastolic Blood Pressure Decrease of ≥10 mmHg, n patients [6]: 1569
Diastolic Blood Pressure Increase of ≥10 mmHg, % patients [6]: (36.2) %
Diastolic Blood Pressure Increase of ≥10 mmHg, n patients [6]: 1442
Diastolic Blood Pressure PCS High ≥100 mmHg and increase of ≥10 mmHg, % patients [6]: (4.5) %
Diastolic Blood Pressure PCS High ≥100 mmHg and increase of ≥10 mmHg, n patients [6]: 179
Diastolic Blood Pressure PCS High ≥100 mmHg, % patients [6]: (5.6) %
Diastolic Blood Pressure PCS High ≥100 mmHg, n patients [6]: 223
Diastolic Blood Pressure PCS Low ≤50 mmHg and decrease of ≥10 mmHg, % patients [6]: (0.9) %
Diastolic Blood Pressure PCS Low ≤50 mmHg and decrease of ≥10 mmHg, n patients [6]: 35
Diastolic Blood Pressure PCS Low ≤50 mmHg, % patients [6]: (1.1) %
Diastolic Blood Pressure PCS Low ≤50 mmHg, n patients [6]: 42
Pulse Decrease of ≥15 beats/min, % patients [6]: (14.1) %
Pulse Decrease of ≥15 beats/min, n patients [6]: 562
Pulse Increase of ≥15 beats/min, % patients [6]: (27.4) %
Pulse Increase of ≥15 beats/min, n patients [6]: 1092
Pulse PCS High ≥90 beats/min and increase of ≥15 beats/min, % patients [6]: (9.3) %
Pulse PCS High ≥90 beats/min and increase of ≥15 beats/min, n patients [6]: 370
Pulse PCS High ≥90 beats/min, % patients [6]: (13.8) %
Pulse PCS High ≥90 beats/min, n patients [6]: 551
Pulse PCS Low ≤50 beats/min and decrease of ≥15 beats/min, % patients [6]: (1.7) %
Pulse PCS Low ≤50 beats/min and decrease of ≥15 beats/min, n patients [6]: 68
Pulse PCS Low ≤50 beats/min, % patients [6]: (7.4) %
Pulse PCS Low ≤50 beats/min, n patients [6]: 293
Systolic Blood Pressure Decrease of ≥20 mmHg, % patients [6]: (25.3) %
Systolic Blood Pressure Decrease of ≥20 mmHg, n patients [6]: 1009
Systolic Blood Pressure Increase of ≥20 mmHg, % patients [6]: (29.2) %
Systolic Blood Pressure Increase of ≥20 mmHg, n patients [6]: 1163
Systolic Blood Pressure PCS High ≥160 mmHg and increase of ≥20 mmHg, % patients [6]: (11.3) %
Systolic Blood Pressure PCS High ≥160 mmHg and increase of ≥20 mmHg, n patients [6]: 450
Systolic Blood Pressure PCS High ≥160 mmHg, % patients [6]: (18.0) %
Systolic Blood Pressure PCS High ≥160 mmHg, n patients [6]: 715
Systolic Blood Pressure PCS Low ≤90 mmHg and decrease of ≥20 mmHg, % patients [6]: (0.7) %
Systolic Blood Pressure PCS Low ≤90 mmHg and decrease of ≥20 mmHg, n patients [6]: 27
Systolic Blood Pressure PCS Low ≤90 mmHg, % patients [6]: (1.0) %
Systolic Blood Pressure PCS Low ≤90 mmHg, n patients [6]: 40
